From PubChem BioAssay (NCI)
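GI50 is the concentration that inhibits growth by half. The concentration for full growth arrest is given as TGI.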

Columns and labels:
Assay in all cases: NCI-60 cell line screen, 384-well format
A498 renal = test system: A498 renal
A549 NSCLC = test system: A549 NSCLC
ACHN renal = test system: ACHN renal
BT-549 breast = test system: BT-549 breast
CAKI-1 renal = test system: CAKI-1 renal
CCRF-CEM leukemia = test system: CCRF-CEM leukemia
COLO 205 colon = test system: COLO 205 colon
DU-145 prostate = test system: DU-145 prostate
EKVX NSCLC = test system: EKVX NSCLC
HCC-2998 colon = test system: HCC-2998 colon
HCT-116 colon = test system: HCT-116 colon
HCT-15 colon = test system: HCT-15 colon
HOP-62 NSCLC = test system: HOP-62 NSCLC
HOP-92 NSCLC = test system: HOP-92 NSCLC
HS 578T breast = test system: HS 578T breast
HT29 colon = test system: HT29 colon
IGROV1 ovarian = test system: IGROV1 ovarian
K-562 leukemia = test system: K-562 leukemia
LOX IMVI melanoma = test system: LOX IMVI melanoma
M14 melanoma = test system: M14 melanoma
MALME-3M melanoma = test system: MALME-3M melanoma
MCF7 breast = test system: MCF7 breast
MDA-MB-231 breast = test system: MDA-MB-231 breast
MDA-MB-435 melanoma = test system: MDA-MB-435 melanoma
MDA-MB-468 breast = test system: MDA-MB-468 breast
NCI-H226 lung = test system: NCI-H226 lung
NCI-H23 lung = test system: NCI-H23 lung
NCI-H460 NSCLC = test system: NCI-H460 NSCLC
NCI-H522 lung = test system: NCI-H522 lung
OVCAR-3 ovarian = test system: OVCAR-3 ovarian
OVCAR-4 ovarian = test system: OVCAR-4 ovarian
OVCAR-5 ovarian = test system: OVCAR-5 ovarian
OVCAR-8 ovarian = test system: OVCAR-8 ovarian
PC-3 prostate = test system: PC-3 prostate
RXF 393 renal = test system: RXF 393 renal
SF-268 CNS = test system: SF-268 CNS
SF-539 CNS = test system: SF-539 CNS
SK-MEL-28 melanoma = test system: SK-MEL-28 melanoma
SK-MEL-5 melanoma = test system: SK-MEL-5 melanoma
SK-OV-3 ovarian = test system: SK-OV-3 ovarian
SN12C renal = test system: SN12C renal
SNB-19 CNS = test system: SNB-19 CNS
SNB-75 CNS = test system: SNB-75 CNS
SR leukemia = test system: SR leukemia
SW-620 colon = test system: SW-620 colon
T-47D breast = test system: T-47D breast
TK-10 renal = test system: TK-10 renal
UACC-257 melanoma = test system: UACC-257 melanoma

`N#CCC1CCN(c2nc(Nc3ccc(N4CCC(O)CC4)cc3)c3c(=O)[nH]ncc3n2)CC1` gave a GI50 (A498 renal) of 804 nM, a TGI (A498 renal) of over 100000 nM and a GI50 (A549 NSCLC) of 365 nM. The TGI (A549 NSCLC) was over 100000 nM, the GI50 (ACHN renal) was 547 nM and the TGI (ACHN renal) was over 100000 nM. It also gave a GI50 (BT-549 breast) of 538 nM, a TGI (BT-549 breast) of 2250 nM and a GI50 (CAKI-1 renal) of 349 nM. The TGI (CAKI-1 renal) was over 100000 nM, the GI50 (CCRF-CEM leukemia) was 332 nM and the TGI (CCRF-CEM leukemia) was over 100000 nM. It also gave a GI50 (COLO 205 colon) of 240 nM, a TGI (COLO 205 colon) of 921 nM and a GI50 (DU-145 prostate) of 704 nM. It also gave a TGI (DU-145 prostate) of over 100000 nM, a GI50 (EKVX NSCLC) of 277 nM and a TGI (EKVX NSCLC) of over 100000 nM. It also gave a GI50 (HCC-2998 colon) of 378 nM, a TGI (HCC-2998 colon) of 2910 nM and a GI50 (HCT-116 colon) of 336 nM. The TGI (HCT-116 colon) was over 100000 nM, the GI50 (HCT-15 colon) was 453 nM and the TGI (HCT-15 colon) was over 100000 nM. It also gave a GI50 (HOP-62 NSCLC) of 3710 nM, a TGI (HOP-62 NSCLC) of over 100000 nM and a GI50 (HOP-92 NSCLC) of 329 nM. It also gave a TGI (HOP-92 NSCLC) of over 100000 nM, a GI50 (HS 578T breast) of 673 nM and a TGI (HS 578T breast) of 3540 nM. It also gave a GI50 (HT29 colon) of 427 nM, a TGI (HT29 colon) of over 100000 nM and a GI50 (IGROV1 ovarian) of 239 nM. For the same molecule, the TGI (IGROV1 ovarian) was 3480 nM, the GI50 (K-562 leukemia) was 482 nM and the TGI (K-562 leukemia) was over 100000 nM. For the same molecule, the GI50 (LOX IMVI melanoma) was 490 nM, the TGI (LOX IMVI melanoma) was 2600 nM and the GI50 (M14 melanoma) was 346 nM. It also gave a TGI (M14 melanoma) of over 100000 nM, a GI50 (MALME-3M melanoma) of 472 nM and a TGI (MALME-3M melanoma) of over 100000 nM. For the same molecule, the GI50 (MCF7 breast) was 254 nM, the TGI (MCF7 breast) was over 100000 nM and the GI50 (MDA-MB-231 breast) was 5420 nM. For the same molecule, the TGI (MDA-MB-231 breast) was over 100000 nM, the GI50 (MDA-MB-435 melanoma) was 311 nM and the TGI (MDA-MB-435 melanoma) was over 100000 nM. It also gave a GI50 (MDA-MB-468 breast) of 1010 nM, a TGI (MDA-MB-468 breast) of 3470 nM and a GI50 (NCI-H226 lung) of 281 nM. The TGI (NCI-H226 lung) was over 100000 nM, the GI50 (NCI-H23 lung) was 293 nM and the TGI (NCI-H23 lung) was over 100000 nM. The GI50 (NCI-H460 NSCLC) was 319 nM, the TGI (NCI-H460 NSCLC) was over 100000 nM and the GI50 (NCI-H522 lung) was 196 nM. It also gave a TGI (NCI-H522 lung) of 929 nM, a GI50 (OVCAR-3 ovarian) of 1130 nM and a TGI (OVCAR-3 ovarian) of over 100000 nM. It also gave a GI50 (OVCAR-4 ovarian) of over 100000 nM, a TGI (OVCAR-4 ovarian) of over 100000 nM and a GI50 (OVCAR-5 ovarian) of 602 nM. The TGI (OVCAR-5 ovarian) was over 100000 nM, the GI50 (OVCAR-8 ovarian) was 5180 nM and the TGI (OVCAR-8 ovarian) was over 100000 nM. The GI50 (PC-3 prostate) was over 100000 nM, the TGI (PC-3 prostate) was over 100000 nM and the GI50 (RXF 393 renal) was 893 nM. It also gave a TGI (RXF 393 renal) of 3270 nM, a GI50 (SF-268 CNS) of 1430 nM and a TGI (SF-268 CNS) of 9430 nM. The GI50 (SF-539 CNS) was 793 nM, the TGI (SF-539 CNS) was 2390 nM and the GI50 (SK-MEL-28 melanoma) was 810 nM. The TGI (SK-MEL-28 melanoma) was over 100000 nM, the GI50 (SK-MEL-5 melanoma) was 338 nM and the TGI (SK-MEL-5 melanoma) was over 100000 nM. The GI50 (SK-OV-3 ovarian) was 235 nM, the TGI (SK-OV-3 ovarian) was 4810 nM and the GI50 (SN12C renal) was 243 nM. The TGI (SN12C renal) was over 100000 nM, the GI50 (SNB-19 CNS) was 2750 nM and the TGI (SNB-19 CNS) was over 100000 nM. The GI50 (SNB-75 CNS) was 1240 nM, the TGI (SNB-75 CNS) was 3170 nM and the GI50 (SR leukemia) was 180 nM. For the same molecule, the TGI (SR leukemia) was 327 nM, the GI50 (SW-620 colon) was 441 nM and the TGI (SW-620 colon) was 2210 nM. For the same molecule, the GI50 (T-47D breast) was 4390 nM, the TGI (T-47D breast) was over 100000 nM and the GI50 (TK-10 renal) was 425 nM. It also gave a TGI (TK-10 renal) of 4850 nM, a GI50 (UACC-257 melanoma) of over 100000 nM and a TGI (UACC-257 melanoma) of over 100000 nM.
